Reference: patent publication US20080267948A1, “Croos-B Structure Binding Compounds” (priority 2005, published 2008)
“Also recorded” adds a separate entry of the source.

How the values were obtained:
tPA = tPA (Homo sapiens, UniProt P00750); assay: Plasminogen activation assay (tPA-mediated conversion of Plg to plasmin); type: biochemical; parameters: purchased Boehringer-Ingelheim Actilyse; conditions: 100 μg ml^−1 protein or peptide, 400 pM tPA, substrate S-2251
Protocol: Plasmin (Plm) activity was assayed as described^4. Peptides and proteins that were tested for their stimulatory ability were used at 100 μg ml^−1, unless stated otherwise. […] Chromogenic substrate S-2251 (Chromogenix, Instrumentation Laboratory SpA, Milano, Italy) was used to measure Pls activity.
Purification of β2-glycoprotein I (β2GPI) was performed according to established methods^15,16. Recombinant human β2GPI was made using insect cells and purified as described^15. Plasma derived β2GPI as used in a factor XII ELISA, the Plg-activation assay and in the anti-phospholipid syndrome antibody ELISA (see below), was purified from fresh human plasma as described^16. […]
Solutions of fibrin peptide FP6, NH2—IDIKIR-COOH (Peptide facility, Dutch Cancer Institute, Amsterdam, the Netherlands) were prepared in various ways. […] Separate samples were prepared similarly and analyzed by electron spray ionization mass spectrometry (ESI-MS) to obtain information on the distribution of the peptide over putatively present oligomers (Dr C. Versluis, Department of Biomolecular Mass Spectrometry, Bijvoet Center for Biomolecular Research, Utrecht University, Utrecht, The Netherlands). […] Micrographs were recorded at 80 kV, at suitable magnifications on a JEM-1200EX electron microscope (JEOL, Japan).

[1] = molecular target: T1, heat-denatured misfolded ovalbumin (DOVA) (Gallus gallus, UniProt P01012); assay: ELISA binding of tPA to immobilized misfolded ovalbumin after pre-incubation with compounds; parameters: species or system chicken; conditions: misfolded OVA first overlayed with compound (concentration series), then tPA
T1 construct: purchased Sigma A5503
T1 sequence (P01012 2-386 limits assumed): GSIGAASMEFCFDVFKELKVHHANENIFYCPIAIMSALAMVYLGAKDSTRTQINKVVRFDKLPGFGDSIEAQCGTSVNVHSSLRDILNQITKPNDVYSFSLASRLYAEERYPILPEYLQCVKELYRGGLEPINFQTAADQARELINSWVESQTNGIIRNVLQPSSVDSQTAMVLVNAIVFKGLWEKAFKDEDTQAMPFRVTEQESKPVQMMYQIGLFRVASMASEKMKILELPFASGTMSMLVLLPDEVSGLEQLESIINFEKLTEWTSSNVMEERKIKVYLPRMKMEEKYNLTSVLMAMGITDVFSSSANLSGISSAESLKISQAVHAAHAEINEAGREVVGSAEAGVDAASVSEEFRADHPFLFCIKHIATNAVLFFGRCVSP
Protocol: Compounds were now diluted 10× in PBS/0.1% Tween20 (500 μg/ml compound). […] With this approach a further selection of the compounds was achieved. Now, compounds that at least interact with HB-AGE are selected. With the selection, similar binding assays are performed with misfolded OVA and Aβ. Finally, concentration series of the selected compounds are used in the binding studies.

heat-denatured ovalbumin = molecular target: T2, heat-denatured ovalbumin (Gallus gallus, UniProt P01012); assay: Thioflavin T fluorescence of ovalbumin and small compounds; parameters: species or system chicken; conditions: 1 mg/ml compound, 1 mg/ml OVA
T2 construct: purchased Sigma A5503
T2 sequence (P01012 1-386): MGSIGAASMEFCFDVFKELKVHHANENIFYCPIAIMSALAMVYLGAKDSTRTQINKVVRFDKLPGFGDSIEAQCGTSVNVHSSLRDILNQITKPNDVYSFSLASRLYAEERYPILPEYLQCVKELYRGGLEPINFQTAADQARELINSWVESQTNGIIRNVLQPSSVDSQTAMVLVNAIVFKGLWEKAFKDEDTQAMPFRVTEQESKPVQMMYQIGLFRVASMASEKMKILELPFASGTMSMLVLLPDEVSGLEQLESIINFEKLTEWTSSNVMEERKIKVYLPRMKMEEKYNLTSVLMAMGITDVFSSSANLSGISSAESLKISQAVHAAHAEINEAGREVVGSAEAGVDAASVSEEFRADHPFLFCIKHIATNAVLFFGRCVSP
Method in brief: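 Heat-denatured ovalbumin at 1 mg/ml in PBS, alone, with 1% v/v DMSO or with 1 mg/ml compound (also heat-denatured after compound addition), mixed 1:9 with 25 μM ThT in 50 mM glycine pH 9.0. Fluorescence read in duplicate at 435 nm excitation, 485 nm emission.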

[2] = test system: misfolded proteins (Hb-AGE, Aβ); assay: Binding of misfolded proteins from solution to immobilized small compounds (overall); conditions: compounds coated on ELISA plates, Hb-AGE or Aβ in solution
Protocol: (§1) To test the ability of the twelve selected compounds (see Table 7) to bind to misfolded proteins, the compounds were immobilized at 10/100/1000 μg/ml in the wells of 96-wells Greiner Microlon high binding plates, Nunc amino Immobilizer plates and Nunc Maxisorp plates. Compounds were coated in 100 mM NaHCO3 pH 9.6, 50 μl/well, 1 h at room temperature with agitation. As a control, wells were coated with buffer only. After blocking of the plates, wells were overlayed with solutions of 0.1/1/10 μg/ml Hb-AGE or 10/100 μg/ml Aβ, in binding buffer (PBS/0.1% Tween20). After washing, binding of Hb-AGE was assessed by overlaying wells with 1 μg/ml hybridoma antibody 4B5, which binds to glycations(^2), followed by RAMPO. Binding of Aβ was visualized using 500× diluted anti-Aβ antibodies (mouse antibody beta-amyloid Clone 6F/3D #M0872, lot 00003503, DAKOCytomation; β-amyloid (H-43) SC-9129, 200 μg/ml rabbit polyclonal IgG, Santa Cruz Biotechnology) and RAMPO/SWARPO in a 1:1 ratio. Finally, wells were overlayed with OPD/H2O2 solution, and H2SO4, before absorbance readings at 490 nm.

Aβ = molecular target: T3, Aβ (Homo sapiens, UniProt P05067, E693Q); assay: Binding of Aβ from solution to immobilized small compounds; conditions: Greiner Microlon, coat 100 μg/ml, Aβ 100 μg/ml
T3 construct: Lyophilized human amyloid-β(1-40) with E22Q mutation ‘Dutch type’; purchased Peptide facility, Dutch Cancer Institute, Amsterdam; host or cells: synthetic peptide
Protocol: as §1, with “the compounds were immobilized at 10/100/1000 μg/ml in the wells of 96-wells” left out

tPA/plasminogen = molecular target: T4, tPA/plasminogen (Homo sapiens, UniProt P00750); assay: tPA/plasminogen activation by OVA heated in the presence of compounds (substrate PNAPEP1751); type: biochemical; conditions: 25 μg/ml OVA, 25 μg/ml compound, […] DMSO
T4 construct: purchased Boehringer Ingelheim Actilyse
T4 sequence (P00750 36-562): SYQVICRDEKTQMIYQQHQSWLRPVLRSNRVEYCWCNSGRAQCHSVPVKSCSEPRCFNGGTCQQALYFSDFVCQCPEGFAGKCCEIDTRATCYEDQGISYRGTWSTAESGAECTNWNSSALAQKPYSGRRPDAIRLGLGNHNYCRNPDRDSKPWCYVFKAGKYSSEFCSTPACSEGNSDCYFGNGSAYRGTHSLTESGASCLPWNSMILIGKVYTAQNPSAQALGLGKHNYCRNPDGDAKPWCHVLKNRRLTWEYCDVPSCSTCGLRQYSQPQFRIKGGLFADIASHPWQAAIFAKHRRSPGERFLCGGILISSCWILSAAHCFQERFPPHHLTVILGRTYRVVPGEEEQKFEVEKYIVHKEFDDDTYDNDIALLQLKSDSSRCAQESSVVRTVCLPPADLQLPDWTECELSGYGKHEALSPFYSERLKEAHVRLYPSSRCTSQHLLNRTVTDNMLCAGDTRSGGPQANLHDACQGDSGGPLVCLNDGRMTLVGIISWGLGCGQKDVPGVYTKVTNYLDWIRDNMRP
Method in brief: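 Ovalbumin heated alone in PBS/1% DMSO (positive control) or with compounds at 1 mg/ml, then used 40-fold diluted in a tPA/plasminogen activation assay; buffer without OVA as negative control. Chromogenic substrate conversion read at 405 nm, with compound interference at 405 nm checked; signals related to control.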

ovalbumin = molecular target: T5, ovalbumin (Gallus gallus, UniProt P01012); assay: Transmission electron microscopy of ovalbumin heated in the presence of small compounds; parameters: species or system chicken; conditions: 1 mg/ml ovalbumin heated with 1 mg/ml compound
T5 construct: purchased Sigma A5503
T5 sequence (P01012 1-386): T2 sequence (P01012 1-386)
Method in brief: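 Ovalbumin at 1 mg/ml was applied to carbon-coated Formvar copper grids, washed with PBS and water, then stained 2 min in 2% methylcellulose with 0.4% uranyl acetate, pH 4. Grids were dried and imaged by TEM at 80 kV.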

[3] = information found on the www, search completed Spring 2006; cited from earlier work

Chain of tPA (P00750 36-562): as above

Row | Compound | stimulation of tPA-mediated conversion of Plg to plasmin (tPA) | influence on tPA binding to immobilized misfolded OVA [1] | influence on Thioflavin T fluorescence with misfolded OVA (heat-denatured ovalbumin) | capture of misfolded protein from solution by immobilized compound [2] | Signal (a.u.) (Aβ) | influence on tPA/plasminogen activation by OVA pre-heated in the presence of compound (tPA/plasminogen) | appearance of ovalbumin heated in the presence of compound on TEM image (ovalbumin) | Use or activity in vitro/in vivo [3]
1 | H-IDIKIR-OH [FP6, reference compound] | activates tPA in the chromogenic plasmin activity assay |  |  |  |  |  |  | 
2 | COc1cc2c(C=O)c3c4c(cc(OC)c(OC)c4c2cc1OC)CCN3C [compound 214, dehydroglaucine derivative] |  | Stimulated tPA binding to immobilized misfolded protein | Inhibition of Thioflavin T fluorescence with misfolded OVA | Capture of misfolded protein from solution | 0.14 | Inhibition of tPA/plasminogen activation by OVA pre-heated | Smaller but more dense aggregates than in Control | inhibitory effect on lipopolysaccharide (LPS)-induced; also recorded: protection of plants from invasion by micro-organisms; also recorded: antimicrobial activity; also recorded: decrease in the blood pressure after applying intravenously; also recorded: bronchoconstrictor effect; also recorded: inhibitory action on the central nervous system
